Data as given in US10869878B2, “Vaginal composition and use thereof” (SINGAPORE ZE&Z INTERNATIONAL PTE. LTD, priority 2014, dated 2020).

Legend:
Type in all cases: cell-based
[1] = test system: Gardnerella vaginalis in the secretions from BV patients; assay: Selective promotion of carbohydrate containing gels for the growth of Gardnerella vaginalis (Experimental Example 4); conditions: secretions from 20 BV patients; 1% (w/v) carbohydrate gel, 48 hrs slightly aerobic
Protocol: (§1) (3) After sampling, the vaginal secretion specimens from BV patients meeting the criteria of inclusion were immediately inoculated to the above 4 gels containing a carbohydrate, slightly aerobically incubated at 37° C. for 48 hrs, then transferred to a plate containing improved MRS with 1% (w/v) glucose and 5% (w/v) calf serum, slightly aerobically incubated for 20-48 hrs, isolated, purified and multiplied. The strain was identified by 16s rDNA sequencing.

[2] = test system: Lactobacilli in the secretions from BV patients; assay: Selective promotion of carbohydrate containing gels for the growth of Lactobacilli, 16s rDNA identification (Experimental Example 4); conditions: secretions from 20 BV patients; 1% (w/v) carbohydrate gel, 48 hrs slightly aerobic
Protocol: as §1

[3] = test system: BV-associated bacteria; assay: Acid production by BV-associated bacteria, carbohydrates and antibacterial agents in combination (Experimental Example 3); conditions: anaerobic, 37° C., 1.5% (w/v) carbohydrate, initial pH 5.4
Excerpt: (1) Grouping in experiment: • (1) Sucrose-preservative group: containing 1.5% (w/v) sucrose, 0.5% (w/v) sodium propionate, 0.025% (w/v) sodium dehydroacetate, MRS basal medium without carbohydrate, 5% (w/v) calf serum, and 0.45% (w/v) agar, pH5.4; • (2) Isomaltose-preservative group: containing 1.5% (w/v) isomaltose, 0.5% (w/v) sodium propionate, 0.025% (w/v) sodium dehydroacetate, MRS basal medium without carbohydrate, 5% (w/v) calf serum, and 0.45% (w/v) agar, pH5.4; • (3) Isomaltulose-preservative group: containing 1.5% (w/v) isomaltulose, 0.5% (w/v) sodium propionate, 0.025% (w/v) sodium dehydroacetate, MRS basal medium without carbohydrate, 5% (w/v) calf serum, and 0.45% (w/v) agar, pH5.4; • (4) Sucrose control group: containing 1.5% (w/v) sucrose, MRS basal medium without carbohydrate, 5% (w/v) calf serum, and 0.45% (w/v) agar, pH5.4; • (5) Isomaltose control group: containing 1.5% (w/v) isomaltose, MRS basal medium without carbohydrate, 5% (w/v) calf serum, and 0.45% (w/v) agar, pH5.4; and • (6) Isomaltulose control group: containing 1.5% (w/v) isomaltulose, MRS basal medium without carbohydrate, 5% (w/v) calf serum, and 0.45% (w/v) agar, pH5.4.
The semi-solid agar of each group is formulated essentially following the method described in Composition Example 1, then sterilized, added with calf serum, and packed in test tubes in a specification of 5 g/tube, for late use.
(2) Secretion specimens from BV patients: vaginal secretions from 2 BV patients; and the criteria of inclusion are: • (1) conforming to the Amsel clinical criteria of BV diagnosis, wherein the pH value of the vaginal secretions was >4.6; • (2) after smearing, Gram staining, and microscopical examination of vaginal secretions, Nugent score ≥7; and • (3) no other vaginosis, and no antimicrobial agent is used within two weeks.
(3) After sampling, the vaginal secretion specimens from BV patients meeting the criteria of inclusion were immediately inoculated to 3 semi-solid agars containing a carbohydrate and a preservative and 3 control agars at the bedside, and anaerobically incubated at 37° C. for […]. The pH values of the agar matrices are detected with a precise pH test paper after 30 or 32 hrs and 40 or 48 hrs of incubation.

OC[C@H]1O[C@@](CO)(O[C@H]2O[C@H](CO)[C@@H](O)[C@H](O)[C@H]2O)[C@@H](O)[C@@H]1O [Sucrose, sucrose]
number of samples positive for Gardnerella vaginalis [1]: 3 (8, 15, 19) | samples positive for Gardnerella vaginalis, In total [1]: 3 | samples positive for Lactobacilli, In total [2]: 9 | total number of samples positive for L. amylovorus incubation [2]: 1 | total number of samples positive for L. crispatus incubation [2]: 1 | total number of samples positive for L. gasseri incubation [2]: 2 | total number of samples positive for L. iners incubation [2]: 0 | total number of samples positive for L. jensenii incubation [2]: 4 | total number of samples positive for L. mucosae incubation [2]: 1 | pH of the semi-solid agar ([3]; Specimen 1 (30 hrs)): 3.8 | pH of the semi-solid agar ([3]; Specimen 2 (32 hrs)): 3.8

OC[C@H]1O[C@H](OC[C@H]2OC(O)[C@H](O)[C@@H](O)[C@@H]2O)[C@H](O)[C@@H](O)[C@@H]1O (stereo partly drawn) [Isomaltose, isomaltose]
number of samples positive for Gardnerella vaginalis [1]: 2 (15, 19) | samples positive for Gardnerella vaginalis, In total [1]: 2 | samples positive for Lactobacilli, In total [2]: 9 | total number of samples positive for L. amylovorus incubation [2]: 1 | total number of samples positive for L. crispatus incubation [2]: 1 | total number of samples positive for L. gasseri incubation [2]: 2 | total number of samples positive for L. iners incubation [2]: 0 | total number of samples positive for L. jensenii incubation [2]: 4 | total number of samples positive for L. mucosae incubation [2]: 1 | pH of the semi-solid agar ([3]; Specimen 1 (30 hrs)): 3.8 | pH of the semi-solid agar ([3]; Specimen 2 (32 hrs)): 3.8-4.1

OC[C@H]1O[C@H](OC[C@H]2OC(O)(CO)[C@@H](O)[C@@H]2O)[C@H](O)[C@@H](O)[C@@H]1O (stereo partly drawn) [Isomaltulose, isomaltulose]
number of samples positive for Gardnerella vaginalis [1]: 2 (15, 19) | samples positive for Gardnerella vaginalis, In total [1]: 2 | samples positive for Lactobacilli, In total [2]: 9 | total number of samples positive for L. amylovorus incubation [2]: 1 | total number of samples positive for L. crispatus incubation [2]: 1 | total number of samples positive for L. gasseri incubation [2]: 2 | total number of samples positive for L. iners incubation [2]: 0 | total number of samples positive for L. jensenii incubation [2]: 4^1 | total number of samples positive for L. mucosae incubation [2]: 1 | pH of the semi-solid agar ([3]; Specimen 1 (30 hrs)): 3.8 | pH of the semi-solid agar ([3]; Specimen 2 (32 hrs)): 3.8
